1 molecule from patent publication US12551479B2, “Acyl-protein thioesterase inhibitor for the treatment and/or prevention of Huntington's disease” (UNIVERSITÉ GRENOBLE ALPES, priority 2019, dated 2026) can be followed below.

The subject of experiment [1] is Hdh^CAG140/+ mice. In words: Horizontal Ladder test. In kind it is in vivo, mouse. The following applies: Hdh^CAG/+ mice, 0.3 mg/kg/day subcutaneous infusion; values similar to wild-type. The procedure:
(§1) Mice littermates were grouped into mixed treatment groups. Males and females were 6 months of age at the beginning of the treatment. For each specific test, all experimental groups were tested on the same day, during the light phase and between Days 16 and 28 of treatment. Prior to testing, mice were acclimatized to the test room for a period of 30 minutes. Treatments were randomly assigned and behavioral tests were performed 12 days before the end of the delivery of the treatment. […] Mice were excluded from analysis if their performance was calculated as a significant outlier by the Grubb test. One mouse was excluded based on these criteria. Mouse weights were measured prior to the start of treatment and until the end of testing.
A horizontal ladder is used to assess forelimb and hindlimb placement and coordination. The horizontal ladder is composed of two clear Plexiglas walls (69.50×15 cm) containing metal rungs (0.2 cm diameter) irregularly spaced (between 0.5 and 2 cm apart). Mice were habituated to walk on a horizontal ladder during two consecutive days (3 trials per day). Then the mice were tested (3 trials) with a different pattern than the two days of habituation. Test trials were videorecorded, and the motor performance as well as the latency to complete the task were quantified. Data are expressed as the average of the 3 trials.

The subject of a further experiment is StHdh^Q111/Q111 cells. In words: RUSH system: GPI-SBP-mCherry trafficking from endoplasmic reticulum to Golgi and plasma membrane. It counts as cell-based, mouse. As to conditions: StHdh^Q111/Q111 cells treated 1 hour with 10 μM. As to the method: The RUSH plasmid (Boncompain et al., 2012) is a bicistronic plasmid (SEQ ID NO: 2) allowing the expression of two parts of the system: the reticulum-specific anchor (KDEL-streptavidin), and the reporter part (GPI-SBP-mCh). The addition of biotin in the extracellular medium (40 μM) induces the unhooking of the reporter part of the anchor, thus allowing to follow the intracellular trafficking in a synchronized way within a cell population from the endoplasmic reticulum.
For striatal StHdh cells, acute treatment was performed at 10 μM for 1 hour before and during the acquisition time. For neurons within the microchambers, treatments were started at DIV2 until DIV12 every day at 1 μM in each compartment of the microfluidic device.
The inventors used the Retention Using Selective Hooks (RUSH) system to study intracellular dynamics from the ER to the plasma membrane in Huntington's disease condition (FIG. 1A). RUSH allows tracking the synchronous release of a reporter molecule from specific intracellular compartments. In the present experiment, the inventors followed the release of glycosylphosphatidylinositol (GPI)-anchored fluorescence protein mCherry, and fused to streptavidin-binding peptide (SBP) that was retained into the ER compartment by the interaction with a “hook” protein composed of the KDEL motif fused to streptavidin. In the absence of biotin, the GPI-SBP-mCherry localizes at the ER (FIG. 1A). Addition of biotin to the cells expressing GPI-SBP-mCherry and KDEL-streptavidin causes a synchronous release of the GPI-SBP-mCherry reporter from the hook which then migrates to the Golgi apparatus and later to the plasma membrane.
To study these dynamics in the context of Huntington's disease, the inventors transfected the GPI-SBP-mCherry-KDEL-streptavidin construct as shown in SEQ ID NO:2 into immortalized striatal cells from Hdh^Q111/Q111 and Hdh^Q7/Q7 mice, referred to as StHdh^Q111/Q111 and StHdh^Q7/Q7 cells respectively. They then monitored GPI-SBP-mCherry trafficking by real-time imaging for 90 minutes. To assess intracellular trafficking dynamics, they quantified the kinetics of appearance and disappearance of mCherry fluorescence in the Golgi apparatus over time (FIGS. 1B and C). Shortly after biotin addition, GPI leaves the ER and moves to the Golgi apparatus. The inventors quantified fluorescence at the Golgi and observed that in StHdh^Q7/Q7 cells, the peak fluorescence was at 16.6 minutes, whereas it was delayed to 23.6 minutes in StHdh^Q111/Q111 cells (FIG. 1B). Their observations indicate a reduced trafficking of GPI from the ER to the Golgi apparatus as well as prolonged retention of GPI in the Golgi as evidenced by a longer period of GPI fluorescence in the Golgi apparatus.

The test system of experiment [2] is Hdh^CAG140/+ mice. The experiment in a line: Novelty-Suppressed Feeding test. In kind it is in vivo, mouse. As to conditions: Hdh^CAG/+ mice, 0.3 mg/kg/day subcutaneous infusion. The procedure:
as §1
The test was performed as in Pla et al., 2013. Animals were food-deprived during 24 hours to increase motivation to consume food. On the day of testing, mice were placed within the testing apparatus, which consisted of a plastic box (50 cm×30 cm×15 cm), the floor of which covered with wooden bedding. Mice were videorecorded and allowed to freely explore the area until they eat the food pellet or for a maximum of 10 minutes. The mice were considered to eat the pellet when they bite the pellet while sitting comfortably.

As to `O=C(CN1CCN(C(=O)c2ccco2)CC1)Nc1cc(C(F)(F)F)ccc1Cl` [ML-348], in the experiment on Hdh^CAG140/+ mice [1], the average error score result is listed as “significant improvement” and the “average time to cross the horizontal ladder” value was “significant improvement”. In the experiment on StHdh^Q111/Q111 cells (without treatment 23.2-23.3 min, StHdh^Q7/Q7 16.6 min), the “time after biotin addition for the appearance of the fluorescence peak in the Golgi” value stood at 18.9 min. Moreover, the “time for fluorescence to leave the Golgi apparatus (retention time in the Golgi)” value in the experiment on StHdh^Q111/Q111 cells (without treatment 24-25.4 min, wild-type cells 15.1 min) stood at 15.1 min. In addition, in the experiment with Hdh^CAG140/+ mice [2], the “latency to feeding in a new environment” value was “restores the behavior of Hdh^CAG/+ mice to that of wild-type mice”.
